Measured values as given in the supplement of paper PMC10307832.

Legend:
Test in all cases: relative viability (nuclei count vs DMSO), 5 days (fraction); higher = more cells survive
[1] = compound: Cc1nc(Nc2ncc(C(=O)Nc3c(C)cccc3Cl)s2)cc(N2CCN(CCO)CC2)n1 [Dasatinib] + CS(=O)(=O)N1CCN(Cc2cc3nc(-c4cccc5[nH]ncc45)nc(N4CCOCC4)c3s2)CC1 [Pictilisib] (partner 1 µM)
In short: (§1)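 Relative viability equals treated-well nuclei counts divided by vehicle-well nuclei counts. Counts came from 4× images of lung cancer cell lines grown in 1536-well plates for 5 days after pin-tool dosing on the day after seeding. Dosing used one drug alone or a fixed anchor-drug dose plus five library-drug doses (not always all listed) in √10 steps, and values are medians of duplicate plates.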

[2] = compound: Cc1nc(Nc2ncc(C(=O)Nc3c(C)cccc3Cl)s2)cc(N2CCN(CCO)CC2)n1 [Dasatinib] + NC(=O)Nc1cc(-c2cccc(F)c2)sc1C(=O)N[C@H]1CCCNC1 [AZD7762] (partner 0.2 µM)
In short: as §1

[3] = compound: Cc1ccc(C(=O)Nc2cccc(C(F)(F)F)c2)cc1Nc1cncc(C(N)=O)c1 [ALW-II-49-7] + O=C(c1cc(Cc2n[nH]c(=O)c3ccccc23)ccc1F)N1CCN(C(=O)C2CC2)CC1 [Olaparib] (partner 8 µM)
In short: as §1

[4] = compound: Cc1ccc(C(=O)Nc2cccc(C(F)(F)F)c2)cc1Nc1cncc(C(N)=O)c1 [ALW-II-49-7] + CC(=O)c1c(C)c2cnc(Nc3ccc(N4CCNCC4)cn3)nc2n(C2CCCC2)c1=O [Palbociclib] (partner 0.5 µM)
In short: as §1

Cell Line	relative viability ([1]; first compound 0.005 µM)	relative viability ([1]; first compound 0.01581 µM)	relative viability ([1]; first compound 0.05 µM)	relative viability ([1]; first compound 0.1581 µM)	relative viability ([1]; first compound 0.5 µM)	relative viability ([2]; first compound 0.005 µM)	relative viability ([2]; first compound 0.01581 µM)	relative viability ([2]; first compound 0.05 µM)	relative viability ([2]; first compound 0.1581 µM)	relative viability ([2]; first compound 0.5 µM)	relative viability ([3]; first compound 0.08 µM)	relative viability ([3]; first compound 0.253 µM)	relative viability ([3]; first compound 0.8 µM)	relative viability ([3]; first compound 2.53 µM)	relative viability ([3]; first compound 8 µM)	relative viability ([4]; first compound 0.08 µM)	relative viability ([4]; first compound 0.253 µM)	relative viability ([4]; first compound 0.8 µM)	relative viability ([4]; first compound 2.53 µM)	relative viability ([4]; first compound 8 µM)
HCC-78	0.185	0.212	0.183	0.159	0.178	0.668	0.618	0.472	0.372	0.226	1.02	0.77	0.767	0.625	0.738	0.434	0.47	0.488	0.509	0.416
HCC-366	0.0952	0.074	0.0543	0.0636	0.0661	0.234	0.248	0.143	0.159	0.0931	0.423	0.333	0.377	0.337	0.301	0.354	0.454	0.388	0.299	0.326
HCC-827	1.23	0.907	0.84	0.429	0.126	0.215	0.176	0.127	0.114	0.146	0.624	0.625	0.59	0.542	0.59	0.44	0.465	0.466	0.367	0.391
IA-LM	0.416	0.312	0.378	0.276	0.257						0.823	0.718	0.726	0.628	0.355					
NCI-H520	0.278	0.265	0.213	0.148	0.157						0.306	0.339	0.33	0.31	0.328	0.219	0.234	0.205	0.213	0.21
NCI-H522						0.857	0.73	0.882	0.654	0.634	0.764	0.547	0.734	0.635	0.742	0.962	0.921	1.2	1.04	0.979
NCI-H596	0.349	0.348	0.312	0.475	0.118	0.945	0.828	0.929	0.74	0.553	0.523	0.616	0.774	0.599	0.757					
NCI-H661	0.269	0.272	0.225	0.274	0.269						0.736	0.85	0.762	0.801	0.733	0.384	0.443	0.39	0.384	0.404
NCI-H1299	0.676	0.359	0.313	0.091	0.0817						0.94	0.972	0.988	0.73	0.761					
NCI-H1563	0.66	0.564	0.584	0.597	0.558															
NCI-H1648						0.677	0.725	0.724	0.369	0.254	1.52	0.684	0.656	0.48	0.808	0.241	0.251	0.264	0.246	0.251
NCI-H1650	0.481	0.277	0.259	0.215	0.199						0.71	0.602	0.749	0.905	0.969	0.328	0.314	0.338	0.397	0.41
NCI-H1703	0.2	0.195	0.203	0.179	0.169	0.128	0.121	0.139	0.116	0.13	0.492	0.398	0.358	0.245	0.245					
NCI-H2009	0.705	0.503	0.41	0.193	0.124						0.601	0.654	0.665	0.422	0.428	0.211	0.264	0.242	0.203	0.199
NCI-H2023	0.21	0.142	0.202	0.173	0.151						0.458	0.543	0.649	0.451	0.424	0.325	0.344	0.36	0.4	0.428
NCI-H2228	0.361	0.289	0.273	0.215	0.212						0.683	0.879	0.606	0.531	0.57	0.602	0.416	0.645	0.812	0.596
NCI-H2342						0.469	0.384	0.383	0.341	0.315	0.47	0.436	0.394	0.357	0.396	0.496	0.541	0.515	0.499	0.488
SK-LU-1	0.369	0.312	0.244	0.201	0.174						0.543	0.49	0.451		0.362	0.332	0.35	0.337	0.26	0.323
SK-MES-1	0.329	0.287	0.242	0.165	0.16						0.548	0.815	0.746	0.527	0.418	0.344	0.314	0.284	0.315	0.22
SW 900						0.592	0.534	0.371	0.36	0.147	0.652	0.759		0.741	0.931	0.475	0.577		0.573	0.658
SW 1573	0.431	0.426	0.379	0.265	0.203						0.508	0.561	0.469	0.505	0.349	0.347	0.489	0.373	0.347	0.319
